# Experimental data published in ChEMBL document CHEMBL3885881, “DrugMatrix”.
# Species: Rattus norvegicus
# Test: DrugMatrix - Regimen: Daily Repeat
# Assay type: toxicity, organism-based, Sprague-Dawley
# Parameters: regimen Daily Repeat, gender Male, age 6-8 weeks
# Details: in vivo, po, route oral GAVAGE, vehicle 100 % WATER
# [1] = 9 mg/kg, 72 h, tissue Blood, dose level Low, time 3 day
# [2] = 9 mg/kg, 72 h, tissue Plasma, dose level Low, time 3 day
# [3] = 9 mg/kg, 120 h, tissue Blood, dose level Low, time 5 day
# [4] = 9 mg/kg, 120 h, tissue Plasma, dose level Low, time 5 day
# [5] = 90 mg/kg, 72 h, tissue Blood, dose level High, time 3 day
# [6] = 90 mg/kg, 72 h, tissue Plasma, dose level High, time 3 day
# [7] = 90 mg/kg, 120 h, tissue Blood, dose level High, time 5 day
# [8] = 90 mg/kg, 120 h, tissue Plasma, dose level High, time 5 day
sequence,measurement,setting,value
STANNOUS FLUORIDE,ABSOLUTE BASOPHIL,[1],0 CELLS/uL
same,ABSOLUTE EOSINOPHIL,[1],0 CELLS/uL
same,ABSOLUTE LYMPHOCYTE,[1],13273.33 CELLS/uL
same,ABSOLUTE MONOCYTE,[1],348.33 CELLS/uL
same,ABSOLUTE SEGMENTED NEUTROPHIL,[1],1378.33 CELLS/uL
same,BASOPHIL,[1],0%
same,EOSINOPHIL,[1],0%
same,ERYTHROCYTE COUNT,[1],5.48 x10E6/uL
same,HEMATOCRIT,[1],34.9%
same,HEMOGLOBIN,[1],13.5 G/DL
same,LEUKOCYTE COUNT,[1],15 x10E3/uL
same,MEAN CORPUSCULAR HEMOGLOBIN,[1],24.67 pg
same,MEAN CORPUSCULAR HEMOGLOBIN CONCENTRATION,[1],38.7 G/DL
same,NUCLEATED RED BLOOD CELLS,[1],0 /100WBC
same,PLATELET COUNT,[1],1118.33 x10E3/uL
same,ALANINE AMINOTRANSFERASE,[2],80.67 u/L
same,ALKALINE PHOSPHATASE,[2],343 u/L
same,ASPARTATE AMINOTRANSFERASE,[2],104.33 u/L
same,BLOOD UREA NITROGEN,[2],17 mg/dL
same,CARBON DIOXIDE,[2],21.33 mmol/L
same,CHOLESTEROL,[2],77 mg/dL
same,CREATINE PHOSPHOKINASE,[2],322.33 u/L
same,CREATININE,[2],0.21 mg/dL
same,GLUCOSE,[2],188 mg/dL
same,LACTATE DEHYDROGENASE,[2],156 u/L
same,LIPASE,[2],9.5 u/L
same,PHOSPHORUS,[2],11.3 mg/dL
same,POTASSIUM,[2],6.63 MEQ/L
same,SODIUM,[2],146.2 MEQ/L
same,TOTAL BILIRUBIN,[2],0.37 mg/dL
same,TOTAL PROTEIN,[2],5.07 G/DL
same,URIC ACID,[2],1.73 mg/dL
same,ABSOLUTE BASOPHIL,[3],0 CELLS/uL
same,ABSOLUTE EOSINOPHIL,[3],174 CELLS/uL
same,ABSOLUTE LYMPHOCYTE,[3],11650 CELLS/uL
same,ABSOLUTE MONOCYTE,[3],421.33 CELLS/uL
same,ABSOLUTE SEGMENTED NEUTROPHIL,[3],1221.33 CELLS/uL
same,BASOPHIL,[3],0%
same,EOSINOPHIL,[3],1%
same,ERYTHROCYTE COUNT,[3],5.66 x10E6/uL
same,HEMATOCRIT,[3],35.6%
same,HEMOGLOBIN,[3],13.1 G/DL
same,LEUKOCYTE COUNT,[3],13.47 x10E3/uL
same,LYMPHOCYTE,[3],86.67%
same,MEAN CORPUSCULAR HEMOGLOBIN,[3],23.23 pg
same,MEAN CORPUSCULAR HEMOGLOBIN CONCENTRATION,[3],36.9 G/DL
same,MEAN CORPUSCULAR VOLUME,[3],62.97 fL
same,MONOCYTE,[3],3%
same,NUCLEATED RED BLOOD CELLS,[3],0 /100WBC
same,PLATELET COUNT,[3],1231.67 x10E3/uL
same,ALANINE AMINOTRANSFERASE,[4],45 u/L
same,ALKALINE PHOSPHATASE,[4],430.67 u/L
same,ASPARTATE AMINOTRANSFERASE,[4],96.67 u/L
same,BLOOD UREA NITROGEN,[4],22 mg/dL
same,CARBON DIOXIDE,[4],24.33 mmol/L
same,CHLORIDE,[4],108.67 MEQ/L
same,CHOLESTEROL,[4],59 mg/dL
same,CREATINE PHOSPHOKINASE,[4],371.67 u/L
same,CREATININE,[4],0.2 mg/dL
same,GLUCOSE,[4],135.33 mg/dL
same,LACTATE DEHYDROGENASE,[4],479 u/L
same,PHOSPHORUS,[4],12.03 mg/dL
same,POTASSIUM,[4],6.27 MEQ/L
same,SODIUM,[4],147.1 MEQ/L
same,TOTAL BILIRUBIN,[4],0.17 mg/dL
same,TOTAL PROTEIN,[4],6.13 G/DL
same,ABSOLUTE BASOPHIL,[5],0 CELLS/uL
same,ABSOLUTE EOSINOPHIL,[5],58 CELLS/uL
same,ABSOLUTE LYMPHOCYTE,[5],13530 CELLS/uL
same,ABSOLUTE MONOCYTE,[5],390.67 CELLS/uL
same,ABSOLUTE SEGMENTED NEUTROPHIL,[5],1821.33 CELLS/uL
same,BASOPHIL,[5],0%
same,EOSINOPHIL,[5],0.33%
same,ERYTHROCYTE COUNT,[5],5.56 x10E6/uL
same,HEMATOCRIT,[5],34%
same,LEUKOCYTE COUNT,[5],15.8 x10E3/uL
same,LYMPHOCYTE,[5],85.67%
same,MEAN CORPUSCULAR HEMOGLOBIN,[5],23.23 pg
same,MEAN CORPUSCULAR HEMOGLOBIN CONCENTRATION,[5],38 G/DL
same,NEUTROPHIL,[5],11.67%
same,NUCLEATED RED BLOOD CELLS,[5],0 /100WBC
same,PLATELET COUNT,[5],1397.33 x10E3/uL
same,ALANINE AMINOTRANSFERASE,[6],42 u/L
same,ALKALINE PHOSPHATASE,[6],299.67 u/L
same,ASPARTATE AMINOTRANSFERASE,[6],76.33 u/L
same,CARBON DIOXIDE,[6],25 mmol/L
same,CHOLESTEROL,[6],62.33 mg/dL
same,CREATINE PHOSPHOKINASE,[6],334 u/L
same,CREATININE,[6],0.15 mg/dL
same,LACTATE DEHYDROGENASE,[6],108 u/L
same,PHOSPHORUS,[6],13.3 mg/dL
same,POTASSIUM,[6],6 MEQ/L
same,TOTAL BILIRUBIN,[6],0.23 mg/dL
same,TOTAL PROTEIN,[6],5.67 G/DL
same,ABSOLUTE BASOPHIL,[7],0 CELLS/uL
same,ABSOLUTE EOSINOPHIL,[7],49.67 CELLS/uL
same,ABSOLUTE MONOCYTE,[7],426 CELLS/uL
same,ABSOLUTE SEGMENTED NEUTROPHIL,[7],994 CELLS/uL
same,BASOPHIL,[7],0%
same,EOSINOPHIL,[7],0.33%
same,ERYTHROCYTE COUNT,[7],5.79 x10E6/uL
same,HEMATOCRIT,[7],36.83%
same,HEMOGLOBIN,[7],13.8 G/DL
same,LEUKOCYTE COUNT,[7],14.2 x10E3/uL
same,MEAN CORPUSCULAR HEMOGLOBIN,[7],23.9 pg
same,MEAN CORPUSCULAR HEMOGLOBIN CONCENTRATION,[7],37.5 G/DL
same,MONOCYTE,[7],3%
same,NEUTROPHIL,[7],7%
same,NUCLEATED RED BLOOD CELLS,[7],0 /100WBC
same,PLATELET COUNT,[7],1414 x10E3/uL
same,ALANINE AMINOTRANSFERASE,[8],41.33 u/L
same,ALKALINE PHOSPHATASE,[8],357 u/L
same,ASPARTATE AMINOTRANSFERASE,[8],86.33 u/L
same,CARBON DIOXIDE,[8],24.33 mmol/L
same,CREATINE PHOSPHOKINASE,[8],353.67 u/L
same,CREATININE,[8],0.22 mg/dL
same,GLUCOSE,[8],190.67 mg/dL
same,LACTATE DEHYDROGENASE,[8],202.33 u/L
same,PHOSPHORUS,[8],14.33 mg/dL
same,POTASSIUM,[8],6.7 MEQ/L
same,SODIUM,[8],150 MEQ/L
same,TOTAL BILIRUBIN,[8],0.2 mg/dL
same,TOTAL PROTEIN,[8],5.87 G/DL
same,URIC ACID,[8],2.3 mg/dL
